# Results published in patent US11235976B2, “Nanocarbon-iron composite system as well as composition, preparation method and use thereof” (Chongqing Lummy Pharmaceutical Co., LTD, priority 2017, dated 2022).
# System: subcutaneous transplantation tumors of 9 types of cancer cells
# Assay: Tumor growth inhibition experiments, subcutaneous transplantation tumors
# Format: in vivo, mice
# Conditions: FIGS. 4-39
# Protocol: Cells growing in a log phase are collected, the concentration of the cell suspension is adjusted to 3×10^7 cells/mL, and the cell suspension is inoculated subcutaneously into the right upper extremities of nude mice at the inoculation dosage of 0.1 mL (about 3×10^6 cells) per mouse. When the average tumor volume of the inoculated mice reaches 100 mm^3, the tumor-bearing mice are randomly divided into the following groups (8 nude mice per group): a negative control group (0.9% sodium chloride injection), a nanocarbon control group, an iron preparation control group, a nanocarbon-iron suspension experimental group, and a cis-platinum control group (intraperitoneal injection at the dosage of 5 mg/kg). The above various drugs are injected into the tumors. The tumor volume changes are recorded, and the formula for calculating the volume is Volume=(length×the square of width)/2.
# Milky white and thick ascites is extracted from the H22 tumor-bearing mice, the concentration of the cell suspension is adjusted to be 3×10^7 cells/mL, 0.1 mL of cell suspension (about 3×10^6 cells) is inoculated subcutaneously into the right upper extremity of each of Kunming mice. When the average tumor volume of the inoculated mice reaches 100 mm^3, the tumor-bearing mice are randomly divided into the following groups (8 mice per group): a negative control group (0.9% sodium chloride injection), a nanocarbon control group, an iron preparation control group, a nanocarbon-iron suspension experimental group, and a cis-platinum control group (intraperitoneal injection at the dosage of 5 mg/kg). The above various drugs are injected into the tumors. The tumor volume changes are recorded, and the formula for calculating the volume is Volume=(length×the square of width)/2.
row,Substance,inhibition effect on growth of 9 types of tumors
1,ammonium ferric citrate,do not have an inhibition effect

# System: H22 metastatic lymph nodes
# Assay: Lymph node metastasis inhibition experiment
# Format: in vivo, Kunming mouse
# Conditions: popliteal lymph nodes
# Protocol: Milky white and thick ascites is extracted from the H22 tumor-bearing mice, the concentration is adjusted to be 3×10^7 cells/mL, 0.05 mL of cell suspension (about 1.5×10^6 cells) is inoculated subcutaneously into the left hind foot pads of each Kunming mouse, and thus a lymph node metastasis mouse model is obtained. The mice are treated when the diameter of the tumor reaches 6-8 mm and there is no ulcer and necrosis. The mice are randomly divided into four groups (10 mice per group): a negative control group (0.9% sodium chloride injection), a nanocarbon control group, an iron preparation control group and a nanocarbon-iron suspension experimental group. 10 days after inoculation, the mice are killed, and popliteal lymph nodes are collected, weighed and fixed for pathological examination.
row,Substance,Weight of Lymph Node
1,ammonium ferric citrate,53.94 ± 11.58 mg

# System: SMMC7721 liver cancer cells
# Assay: Cell experiment, cell survival rate
# Format: cell-based
# Conditions: SMMC-7721; iron preparation alone 0.43 μg/mL; 48 h
# Protocol: (§1) Cells growing in a log phase are collected, the concentration of the cell suspension is adjusted, 100 μL of cell suspension is added to each well and the cells are plated (edge wells are filled with sterile PBS) at a density of 1×10^3-10^4 cells/well. The cells are incubated for 24 hours at 37° C. under the condition of 5% CO2, a nanocarbon-iron solution having a concentration gradient (nanocarbon content: 125, 62.5, 15.63 and 3.91 μg/mL; and ferric ion content: 13.65, 6.83, 1.71 and 0.43 μg/mL) is added, and three sub-wells are set. Then the cells are incubated for 48 hours at 37° C. under the condition of 5% CO2. 10 μL of CCK8 solution is added to each well and then the cells are continuously incubated for 2 hours. The absorbance of each well is measured at OD=450 nm with the microplate reader. In addition, a negative control group, nanocarbon control groups having the same concentration and iron preparation control groups having the same concentration are set.
# as §1, with “and 1” for “100”, “of a 6-well plate” for “and the cells are plated (edge wells are filled with sterile PBS)”, “3×10^4” for “1×10^3-10^4”, “1.71,” for “1.71 and”, “The” for “10 μL of CCK8 solution is added to each well and then the”, “trypsinized and counted.” for “continuously incubated for 2 hours. The absorbance of each well is measured at OD=450 nm with the microplate reader.”
row,Substance,Cell Survival Rate
1,ammonium ferric citrate,100%

# Same assay, conditions: SMMC-7721; iron preparation alone 1.71 μg/mL; 48 h
row,Substance,Cell Survival Rate
1,ammonium ferric citrate,98.43%

# Same assay, conditions: SMMC-7721; iron preparation alone 6.83 μg/mL; 48 h
row,Substance,Cell Survival Rate
1,ammonium ferric citrate,94.19%

# Same assay, conditions: SMMC-7721; iron preparation alone 13.65 μg/mL; 48 h
row,Substance,Cell Survival Rate
1,ammonium ferric citrate,100%

# System: SKOV3 ovarian cancer cells
# Assay: Cell experiment, cell survival rate
# Format: cell-based
# Conditions: iron preparation alone 0.43 μg/mL, 48 h
# Protocol: as §1
# as §1, with “and 1” for “100”, “of a 6-well plate” for “and the cells are plated (edge wells are filled with sterile PBS)”, “3×10^4” for “1×10^3-10^4”, “1.71,” for “1.71 and”, “The” for “10 μL of CCK8 solution is added to each well and then the”, “trypsinized and counted.” for “continuously incubated for 2 hours. The absorbance of each well is measured at OD=450 nm with the microplate reader.”
row,Substance,Cell Survival Rate
1,ammonium ferric citrate,95.67%

# Same assay, conditions: iron preparation alone 1.71 μg/mL, 48 h
row,Substance,Cell Survival Rate
1,ammonium ferric citrate,99.46%

# Same assay, conditions: iron preparation alone 6.83 μg/mL, 48 h
row,Substance,Cell Survival Rate
1,ammonium ferric citrate,94.36%

# Same assay, conditions: iron preparation alone 13.65 μg/mL, 48 h
row,Substance,Cell Survival Rate
1,ammonium ferric citrate,100%

# System: Hela cervical cancer cells
# Assay: Cell experiment, cell survival rate
# Format: cell-based
# Conditions: iron preparation alone 0.43 μg/mL, 48 h
# Protocol: as §1
# as §1, with “and 1” for “100”, “of a 6-well plate” for “and the cells are plated (edge wells are filled with sterile PBS)”, “3×10^4” for “1×10^3-10^4”, “1.71,” for “1.71 and”, “The” for “10 μL of CCK8 solution is added to each well and then the”, “trypsinized and counted.” for “continuously incubated for 2 hours. The absorbance of each well is measured at OD=450 nm with the microplate reader.”
row,Substance,Cell Survival Rate
1,ammonium ferric citrate,100%

# Same assay, conditions: iron preparation alone 1.71 μg/mL, 48 h
row,Substance,Cell Survival Rate
1,ammonium ferric citrate,99.34%

# Same assay, conditions: iron preparation alone 6.83 μg/mL, 48 h
row,Substance,Cell Survival Rate
1,ammonium ferric citrate,97.46%

# Same assay, conditions: iron preparation alone 13.65 μg/mL, 48 h
row,Substance,Cell Survival Rate
1,ammonium ferric citrate,93.67%

# System: MDA-MB-231 breast cancer cells
# Assay: Cell experiment, cell survival rate
# Format: cell-based
# Conditions: iron preparation alone 0.43 μg/mL, 48 h
# Protocol: as §1
# as §1, with “and 1” for “100”, “of a 6-well plate” for “and the cells are plated (edge wells are filled with sterile PBS)”, “3×10^4” for “1×10^3-10^4”, “1.71,” for “1.71 and”, “The” for “10 μL of CCK8 solution is added to each well and then the”, “trypsinized and counted.” for “continuously incubated for 2 hours. The absorbance of each well is measured at OD=450 nm with the microplate reader.”
row,Substance,Cell Survival Rate
1,ammonium ferric citrate,100%

# Same assay, conditions: iron preparation alone 1.71 μg/mL, 48 h
row,Substance,Cell Survival Rate
1,ammonium ferric citrate,100%

# Same assay, conditions: iron preparation alone 6.83 μg/mL, 48 h
row,Substance,Cell Survival Rate
1,ammonium ferric citrate,97.28%

# Same assay, conditions: iron preparation alone 13.65 μg/mL, 48 h
row,Substance,Cell Survival Rate
1,ammonium ferric citrate,95.12%

# System: SGC-7901 stomach cancer cells
# Assay: Cell experiment, cell survival rate
# Format: cell-based
# Conditions: iron preparation alone 0.43 μg/mL, 48 h
# Protocol: as §1
# as §1, with “and 1” for “100”, “of a 6-well plate” for “and the cells are plated (edge wells are filled with sterile PBS)”, “3×10^4” for “1×10^3-10^4”, “1.71,” for “1.71 and”, “The” for “10 μL of CCK8 solution is added to each well and then the”, “trypsinized and counted.” for “continuously incubated for 2 hours. The absorbance of each well is measured at OD=450 nm with the microplate reader.”
row,Substance,Cell Survival Rate
1,ammonium ferric citrate,97.85%

# Same assay, conditions: iron preparation alone 1.71 μg/mL, 48 h
row,Substance,Cell Survival Rate
1,ammonium ferric citrate,95.31%

# Same assay, conditions: iron preparation alone 6.83 μg/mL, 48 h
row,Substance,Cell Survival Rate
1,ammonium ferric citrate,96.41%

# Same assay, conditions: iron preparation alone 13.65 μg/mL, 48 h
row,Substance,Cell Survival Rate
1,ammonium ferric citrate,100%

# System: murine liver cancer H22 cells
# Assay: Cell experiment, cell survival rate
# Format: cell-based
# Conditions: iron preparation alone 0.43 μg/mL, 48 h
# Protocol: as §1
# as §1, with “and 1” for “100”, “of a 6-well plate” for “and the cells are plated (edge wells are filled with sterile PBS)”, “3×10^4” for “1×10^3-10^4”, “1.71,” for “1.71 and”, “The” for “10 μL of CCK8 solution is added to each well and then the”, “trypsinized and counted.” for “continuously incubated for 2 hours. The absorbance of each well is measured at OD=450 nm with the microplate reader.”
row,Substance,Cell Survival Rate
1,ammonium ferric citrate,96.21%
